Data published in patent US20250197864A1, “LNCRNA TRANSCRIPTS IN MELANOMAGENESIS” (The Regents of the University of California, priority 2021, published 2025).

Test system: gene expression in D04 melanoma cells
Experiment: RNA-Seq differential expression analysis (DESeq2)
Type: cell-based, human
Experimental: Total RNA was isolated using the RNeasy mini Kit (QIAGEN) following the manufacturer's protocol. Quality check for extracted RNA was done using 2100 Bioanalyzer (Agilent Technologies, USA) or Tapestation System (Agilent Technologies, USA). […] For samples used for identification of MAPK-responsive lncRNAs, paired-end, 101-bp sequencing was performed by Centrillion Genomic Services (Centrillion Biosciences, USA) on an Illumina HiSeq 2000. For DE gene analysis of ASO-transfected D04 samples, paired-end, 2×150-bp sequencing was performed by Genewiz (USA) on a Illumina HiSeq.
Sequence reads were aligned to the human genome (hg19) using TopHat (Version 2.0.11).
Differential expression (DE) analysis was done using DESeq2. Differentially expressed genes were defined by more than 1.5-fold changes (log 2 >0.58 or <−0.58) in expression with FDR<0.05. GO term analysis was done using DAVID Functional Annotation Clustering analysis.
To examine the biomolecular changes upon TRASH-inhibition in melanoma, D04 cells were treated with TRASH-ASOs (SEQ ID NO:15) and Control-ASOs and RNA was extracted and used for RNA-Seq. […] These GO terms consisted of genes encoding growth factors, tyrosine kinases, G protein coupled receptor subunits, and collagen subunits. Scatter plot diagram showing differential gene expression after TRASH-ASO treatment compared to Control-ASO treatment. (cut-off for significance was adjusted p-value <0.05). Data was obtained from RNA-Seq of D04 melanoma cells, treatment period was three days. (FIG. 5c)

[1] = D04 cells, three days, vs Control-ASO, cut off >1.5-fold change and FDR <0.05

GACTGGAGATAATTAA (gapmer, pattern not given here) [SEQ ID NO: 15, GapmeR ASO targeting AC004540.4 (TRASH), exon region of both isoforms; used for in vitro experiments]
log2FoldChange (CATSPERG (ENSG00000099338)): 1.259
log2FoldChange (CCDC187 (ENSG00000260220)): 2.881
log2FoldChange (CD274 (ENSG00000120217)): 1.226
log2FoldChange (CD300C (ENSG00000167850)): 2.474
log2FoldChange (CDH4 (ENSG00000179242)): 1.668
log2FoldChange (CELF2 (ENSG00000048740)): −0.6612
log2FoldChange (CFI (ENSG00000205403)): −0.6803
log2FoldChange (CHCHD10 (ENSG00000250479)): −0.6153
log2FoldChange (CHL1 (ENSG00000134121)): −0.6927
log2FoldChange (CHMP1B2P (ENSG00000278530)): −0.6924
log2FoldChange (CIITA (ENSG00000179583)): −0.6508
log2FoldChange (CLDN3 (ENSG00000165215)): 1.402
log2FoldChange (CNTN1 (ENSG00000018236)): −0.6103
log2FoldChange (CNTNAP3B (ENSG00000154529)): −0.6749
log2FoldChange (COL4A5 (ENSG00000188153)): −0.6293
log2FoldChange (COL20A1 (ENSG00000101203)): 2.951
log2FoldChange (COL27A1 (ENSG00000196739)): −0.6335
log2FoldChange (COLGALT2 (ENSG00000198756)): −0.6617
log2FoldChange (CREB3L3 (ENSG00000060566)): −0.704
log2FoldChange (CREG2 (ENSG00000175874)): −0.6351
log2FoldChange (CSF2RB (ENSG00000100368)): 3.672
log2FoldChange (CSMD3 (ENSG00000164796)): −0.6823
log2FoldChange (CX3CL1 (ENSG00000006210)): −0.5835
log2FoldChange (CYP4F32P (ENSG00000223564)): −0.6527
log2FoldChange (CYP27A1 (ENSG00000135929)): −0.625
number of genes down-regulated [1]: 574 genes
number of genes up-regulated [1]: 493 genes
log2FoldChange (DAW1 (ENSG00000123977)): 2.338
log2FoldChange (DBNDD1 (ENSG00000003249)): −0.6098
log2FoldChange (DCAF8L2 (ENSG00000189186)): −0.6365
log2FoldChange (DCLK1 (ENSG00000133083)): 2.001
log2FoldChange (DHRS3 (ENSG00000162496)): −0.6585
log2FoldChange (DHRS11 (ENSG00000278535)): −0.6876
log2FoldChange (DLEU7 (ENSG00000186047)): 1.438
log2FoldChange (DLG4 (ENSG00000132535)): −0.6697
log2FoldChange (DLX1 (ENSG00000144355)): −0.6655
log2FoldChange (DMPK (ENSG00000104936)): −0.6857
log2FoldChange (DNAH6 (ENSG00000115423)): 1.798
log2FoldChange (DNAH11 (ENSG00000105877)): 1.75
log2FoldChange (DOK7 (ENSG00000175920)): 1.741
log2FoldChange (DPF3 (ENSG00000205683)): 1.473
log2FoldChange (DRGX (ENSG00000165606)): 1.312
log2FoldChange (DYNC1I2 (ENSG00000077380)): −0.6997
log2FoldChange (EMILIN1 (ENSG00000138080)): −0.6247
log2FoldChange (ENO3 (ENSG00000108515)): −0.6026
log2FoldChange (ENOX1 (ENSG00000120658)): −0.7019
log2FoldChange (ENOX2 (ENSG00000165675)): −0.6448
log2FoldChange KDM7A (ENSG00000006459, up-regulated list): 0.6751
log2FoldChange CCL26 (ENSG00000006606, up-regulated list): 0.6667
log2FoldChange BIRC3 (ENSG00000023445, up-regulated list): 0.9484
log2FoldChange NEDD4L (ENSG00000049759, up-regulated list): 0.9476
log2FoldChange SLC4A8 (ENSG00000050438, up-regulated list): 1.215
log2FoldChange RRP12 (ENSG00000052749, up-regulated list): 0.614
log2FoldChange MCF2L2 (ENSG00000053524, up-regulated list): 0.71
log2FoldChange RASGRF1 (ENSG00000058335, up-regulated list): 1.152
log2FoldChange MPC1 (ENSG00000060762, up-regulated list): 0.9395
log2FoldChange GSTO2 (ENSG00000065621, up-regulated list): 0.6503
log2FoldChange SPTB (ENSG00000070182, up-regulated list): 0.7656
log2FoldChange ASNS (ENSG00000070669, up-regulated list): 0.7766
log2FoldChange SLC6A15 (ENSG00000072041, up-regulated list): 0.8053
log2FoldChange PPP2R3A (ENSG00000073711, up-regulated list): 0.6253
log2FoldChange FSCN1 (ENSG00000075618, up-regulated list): 0.7766
log2FoldChange ANKRD13A (ENSG00000076513, up-regulated list): 0.723
log2FoldChange DCT (ENSG00000080166, up-regulated list): 0.9874
log2FoldChange ATP8B1 (ENSG00000081923, up-regulated list): 0.9522
log2FoldChange SERTAD4 (ENSG00000082497, up-regulated list): 0.7371
log2FoldChange ABCB1 (ENSG00000085563, up-regulated list): 0.7955
log2FoldChange HSD17B2 (ENSG00000086696, up-regulated list): 0.6195
log2FoldChange LAT2 (ENSG00000086730, up-regulated list): 0.8215
log2FoldChange PPP1R15A (ENSG00000087074, up-regulated list): 0.8007
log2FoldChange LYZ (ENSG00000090382, up-regulated list): 0.9901
log2FoldChange EPB41L4B (ENSG00000095203, up-regulated list): 1.165
log2FoldChange TBC1D2 (ENSG00000095383, up-regulated list): 0.7709
log2FoldChange IL11 (ENSG00000095752, up-regulated list): 1.064
log2FoldChange DSP (ENSG00000096696, up-regulated list): 0.6307
log2FoldChange MISP (ENSG00000099812, up-regulated list): 1.058
log2FoldChange CDHR5 (ENSG00000099834, up-regulated list): 0.8144
log2FoldChange GGT1 (ENSG00000100031, up-regulated list): 0.8806
log2FoldChange IL2RB (ENSG00000100385, up-regulated list): 0.8537
log2FoldChange DHRS2 (ENSG00000100867, up-regulated list): 0.8953
log2FoldChange PYGB (ENSG00000100994, up-regulated list): 0.8557
log2FoldChange SLCO4A1 (ENSG00000101187, up-regulated list): 1.202
log2FoldChange LAMA1 (ENSG00000101680, up-regulated list): 0.7271
log2FoldChange SYP (ENSG00000102003, up-regulated list): 1.211
log2FoldChange NECAB2 (ENSG00000103154, up-regulated list): 0.9871
log2FoldChange NDRG1 (ENSG00000104419, up-regulated list): 0.6175
log2FoldChange TRMT1 (ENSG00000104907, up-regulated list): 0.655
